Laboratory results as given in ChEMBL document CHEMBL4507302, “Data for DCP probe TP-020” (2021).

Assays:
[1] = target: Serine/threonine-protein kinase Chk1 (Homo sapiens) (UniProt O14757); details: Compound concentration 1000.0 nM
[2] = target: Serine/threonine-protein kinase OSR1 (Homo sapiens) (UniProt O95747); details: Compound concentration 1000.0 nM
[3] = system: Tyrosine-protein kinase ABL1 (Homo sapiens), P00519 [T315I]; details: Compound concentration 1000.0 nM
[4] = target: Serine/threonine-protein kinase Sgk3 (Homo sapiens) (UniProt Q96BR1); details: Compound concentration 1000.0 nM
[5] = target: Mitogen-activated protein kinase kinase kinase kinase 5 (Homo sapiens) (UniProt Q9Y4K4); details: Compound concentration 1000.0 nM
[6] = target: Ankyrin repeat and protein kinase domain-containing protein 1 (Homo sapiens) (UniProt Q8NFD2); details: Compound concentration 1000.0 nM
[7] = target: Mitogen-activated protein kinase 4 (Homo sapiens) (UniProt P31152); details: Compound concentration 1000.0 nM
[8] = target: Citron Rho-interacting kinase (Homo sapiens) (UniProt O14578); details: Compound concentration 1000.0 nM
[9] = target: Cyclin-dependent kinase 13 (Homo sapiens) (UniProt Q14004); details: Compound concentration 1000.0 nM
[10] = target: Serine/threonine-protein kinase RIO3 (Homo sapiens) (UniProt O14730); details: Compound concentration 1000.0 nM
[11] = system: Mast/stem cell growth factor receptor Kit (Homo sapiens), P10721 [D816H]; details: Compound concentration 1000.0 nM
[12] = target: Serine/threonine-protein kinase 24 (Homo sapiens) (UniProt Q9Y6E0); details: Compound concentration 1000.0 nM
[13] = system: Mast/stem cell growth factor receptor Kit (Homo sapiens), P10721 [V559D,T670I]; details: Compound concentration 1000.0 nM
[14] = target: Casein kinase I isoform gamma-2 (Homo sapiens) (UniProt P78368); details: Compound concentration 1000.0 nM
[15] = target: Tyrosine-protein kinase Blk (Homo sapiens) (UniProt P51451); details: Compound concentration 1000.0 nM
[16] = target: Non-receptor tyrosine-protein kinase TNK1 (Homo sapiens) (UniProt Q13470); details: Compound concentration 1000.0 nM
[17] = target: NT-3 growth factor receptor (Homo sapiens) (UniProt Q16288); details: Compound concentration 1000.0 nM
[18] = target: Serine/threonine-protein kinase WNK4 (Homo sapiens) (UniProt Q96J92); details: Compound concentration 1000.0 nM
[19] = target: Tyrosine-protein kinase receptor TYRO3 (Homo sapiens) (UniProt Q06418); details: Compound concentration 1000.0 nM
[20] = target: Dual specificity protein kinase CLK2 (Homo sapiens) (UniProt P49760); details: Compound concentration 1000.0 nM
[21] = target: Tyrosine-protein kinase Fes/Fps (Homo sapiens) (UniProt P07332); details: Compound concentration 1000.0 nM
Chain of Tyrosine-protein kinase Fes/Fps (Homo sapiens) (P07332 whole entry): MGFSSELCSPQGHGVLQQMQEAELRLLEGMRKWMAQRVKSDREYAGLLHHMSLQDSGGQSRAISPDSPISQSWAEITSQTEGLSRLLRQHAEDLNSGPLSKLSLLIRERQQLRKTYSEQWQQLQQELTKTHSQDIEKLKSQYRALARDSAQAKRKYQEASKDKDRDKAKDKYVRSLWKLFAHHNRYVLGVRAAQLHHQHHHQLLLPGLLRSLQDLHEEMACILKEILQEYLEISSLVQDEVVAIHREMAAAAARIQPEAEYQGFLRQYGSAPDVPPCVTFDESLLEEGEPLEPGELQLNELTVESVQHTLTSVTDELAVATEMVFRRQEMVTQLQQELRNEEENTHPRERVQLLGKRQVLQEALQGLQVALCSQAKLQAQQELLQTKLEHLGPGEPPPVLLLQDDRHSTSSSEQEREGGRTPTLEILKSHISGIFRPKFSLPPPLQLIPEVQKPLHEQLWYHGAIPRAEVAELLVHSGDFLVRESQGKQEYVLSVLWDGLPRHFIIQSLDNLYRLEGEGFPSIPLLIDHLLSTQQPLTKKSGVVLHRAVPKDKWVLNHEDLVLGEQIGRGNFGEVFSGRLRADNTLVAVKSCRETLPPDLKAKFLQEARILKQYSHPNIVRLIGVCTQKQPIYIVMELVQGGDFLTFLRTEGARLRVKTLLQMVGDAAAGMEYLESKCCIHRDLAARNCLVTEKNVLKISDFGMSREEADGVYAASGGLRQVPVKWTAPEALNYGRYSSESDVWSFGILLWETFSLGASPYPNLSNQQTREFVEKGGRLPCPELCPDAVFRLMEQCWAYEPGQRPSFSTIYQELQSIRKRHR

[22] = target: Mitogen-activated protein kinase 15 (Homo sapiens) (UniProt Q8TD08); details: Compound concentration 1000.0 nM
[23] = target: Serine/threonine-protein kinase 25 (Homo sapiens) (UniProt O00506); details: Compound concentration 1000.0 nM
[24] = target: Serine/threonine-protein kinase 38-like (Homo sapiens) (UniProt Q9Y2H1); details: Compound concentration 1000.0 nM
[25] = target: Serine/threonine-protein kinase 35 (Homo sapiens) (UniProt Q8TDR2); details: Compound concentration 1000.0 nM
[26] = target: Ephrin type-B receptor 1 (Homo sapiens) (UniProt P54762); details: Compound concentration 1000.0 nM
[27] = target: 5-hydroxytryptamine receptor 1E (Homo sapiens) (UniProt P28566); details: Compound concentration 10.0 uM
[28] = target: Ribosomal protein S6 kinase alpha-1 (Homo sapiens) (UniProt Q15418); details: Compound concentration 1000.0 nM
Chain of Ribosomal protein S6 kinase alpha-1 (Homo sapiens) (Q15418 whole entry): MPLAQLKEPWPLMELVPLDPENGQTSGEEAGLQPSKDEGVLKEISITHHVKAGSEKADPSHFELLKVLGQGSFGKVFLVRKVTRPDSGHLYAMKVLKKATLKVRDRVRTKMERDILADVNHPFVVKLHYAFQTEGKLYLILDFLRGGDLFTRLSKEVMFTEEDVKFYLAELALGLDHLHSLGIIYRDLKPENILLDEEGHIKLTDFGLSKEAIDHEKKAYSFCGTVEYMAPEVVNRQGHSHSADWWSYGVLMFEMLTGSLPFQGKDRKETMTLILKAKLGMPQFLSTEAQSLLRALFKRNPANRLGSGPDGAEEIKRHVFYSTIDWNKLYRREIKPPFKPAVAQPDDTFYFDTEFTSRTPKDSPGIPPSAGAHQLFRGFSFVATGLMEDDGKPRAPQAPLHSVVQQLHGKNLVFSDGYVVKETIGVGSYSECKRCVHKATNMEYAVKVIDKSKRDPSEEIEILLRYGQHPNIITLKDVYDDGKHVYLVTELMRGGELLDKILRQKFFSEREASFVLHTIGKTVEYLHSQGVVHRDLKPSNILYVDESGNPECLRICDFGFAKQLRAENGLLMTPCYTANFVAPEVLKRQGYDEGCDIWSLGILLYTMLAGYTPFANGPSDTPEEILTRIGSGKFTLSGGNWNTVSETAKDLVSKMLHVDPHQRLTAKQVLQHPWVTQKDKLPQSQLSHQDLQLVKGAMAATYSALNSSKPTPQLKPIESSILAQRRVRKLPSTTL

[29] = target: Dual specificity protein kinase CLK3 (Homo sapiens) (UniProt P49761); details: Compound concentration 1000.0 nM
Chain of Dual specificity protein kinase CLK3 (Homo sapiens) (P49761 whole entry, looked up): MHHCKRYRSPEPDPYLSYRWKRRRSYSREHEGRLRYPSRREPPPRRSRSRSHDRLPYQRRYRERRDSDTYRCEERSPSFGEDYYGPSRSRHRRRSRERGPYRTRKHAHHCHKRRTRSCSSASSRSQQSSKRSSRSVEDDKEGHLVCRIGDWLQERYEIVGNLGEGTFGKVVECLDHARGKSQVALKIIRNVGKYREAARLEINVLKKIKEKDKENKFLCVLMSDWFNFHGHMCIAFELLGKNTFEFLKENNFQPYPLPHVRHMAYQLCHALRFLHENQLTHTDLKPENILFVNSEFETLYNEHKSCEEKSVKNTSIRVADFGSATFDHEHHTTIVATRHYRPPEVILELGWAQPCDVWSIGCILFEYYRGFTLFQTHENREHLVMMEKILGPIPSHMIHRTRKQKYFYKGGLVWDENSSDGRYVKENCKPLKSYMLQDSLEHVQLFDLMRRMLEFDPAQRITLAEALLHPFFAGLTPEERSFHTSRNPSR

[30] = target: Serine/threonine-protein kinase TBK1 (Homo sapiens) (UniProt Q9UHD2); details: Compound concentration 1000.0 nM
[31] = target: Ephrin type-A receptor 2 (Homo sapiens) (UniProt P29317); details: Compound concentration 1000.0 nM
[32] = target: RAC-alpha serine/threonine-protein kinase (Homo sapiens) (UniProt P31749); details: Compound concentration 1000.0 nM
[33] = target: Cyclin-dependent kinase-like 1 (Homo sapiens) (UniProt Q00532); details: Compound concentration 1000.0 nM
Chain of Cyclin-dependent kinase-like 1 (Homo sapiens) (Q00532 whole entry): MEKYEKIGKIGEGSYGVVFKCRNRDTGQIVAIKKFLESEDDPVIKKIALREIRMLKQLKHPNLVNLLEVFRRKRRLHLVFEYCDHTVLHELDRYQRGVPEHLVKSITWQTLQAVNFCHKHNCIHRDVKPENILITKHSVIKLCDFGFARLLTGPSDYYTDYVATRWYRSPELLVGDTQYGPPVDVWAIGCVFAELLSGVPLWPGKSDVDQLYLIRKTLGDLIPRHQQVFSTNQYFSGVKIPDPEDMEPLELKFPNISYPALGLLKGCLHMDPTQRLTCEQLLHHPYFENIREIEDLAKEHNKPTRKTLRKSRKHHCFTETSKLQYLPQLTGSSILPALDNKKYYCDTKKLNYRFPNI

[34] = target: Serine/threonine-protein kinase pim-1 (Homo sapiens) (UniProt P11309); details: Compound concentration 1000.0 nM
[35] = target: SNF-related serine/threonine-protein kinase (Homo sapiens) (UniProt Q9NRH2); details: Compound concentration 1000.0 nM
[36] = target: Angiopoietin-1 receptor (Homo sapiens) (UniProt Q02763); details: Compound concentration 1000.0 nM
[37] = target: Calcium/calmodulin-dependent protein kinase type 1 (Homo sapiens) (UniProt Q14012); details: Compound concentration 1000.0 nM
[38] = target: Ribosomal protein S6 kinase alpha-3 (Homo sapiens) (UniProt P51812); details: Compound concentration 1000.0 nM
[39] = target: Tyrosine-protein kinase Lyn (Homo sapiens) (UniProt P07948); details: Compound concentration 1000.0 nM
Chain of Tyrosine-protein kinase Lyn (Homo sapiens) (P07948 2-512 limits assumed): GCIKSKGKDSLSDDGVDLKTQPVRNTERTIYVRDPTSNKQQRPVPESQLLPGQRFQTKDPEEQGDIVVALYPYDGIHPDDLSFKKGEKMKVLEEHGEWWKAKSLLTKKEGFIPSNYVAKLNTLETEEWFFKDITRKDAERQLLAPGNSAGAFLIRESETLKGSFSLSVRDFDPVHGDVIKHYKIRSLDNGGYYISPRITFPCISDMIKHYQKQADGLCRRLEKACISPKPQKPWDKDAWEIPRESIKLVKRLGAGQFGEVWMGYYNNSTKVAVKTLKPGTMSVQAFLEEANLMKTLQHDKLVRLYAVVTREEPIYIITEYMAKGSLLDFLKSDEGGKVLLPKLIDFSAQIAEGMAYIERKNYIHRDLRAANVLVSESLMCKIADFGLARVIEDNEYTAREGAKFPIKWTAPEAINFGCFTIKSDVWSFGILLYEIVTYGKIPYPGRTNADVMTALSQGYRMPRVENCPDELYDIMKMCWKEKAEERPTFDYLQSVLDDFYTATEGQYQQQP

[40] = target: Phosphatidylinositol 4,5-bisphosphate 3-kinase catalytic subunit gamma isoform (Homo sapiens) (UniProt P48736); details: Compound concentration 1000.0 nM
Chain of Phosphatidylinositol 4,5-bisphosphate 3-kinase catalytic subunit gamma isoform (Homo sapiens) (P48736 whole entry, looked up, canonical isoform): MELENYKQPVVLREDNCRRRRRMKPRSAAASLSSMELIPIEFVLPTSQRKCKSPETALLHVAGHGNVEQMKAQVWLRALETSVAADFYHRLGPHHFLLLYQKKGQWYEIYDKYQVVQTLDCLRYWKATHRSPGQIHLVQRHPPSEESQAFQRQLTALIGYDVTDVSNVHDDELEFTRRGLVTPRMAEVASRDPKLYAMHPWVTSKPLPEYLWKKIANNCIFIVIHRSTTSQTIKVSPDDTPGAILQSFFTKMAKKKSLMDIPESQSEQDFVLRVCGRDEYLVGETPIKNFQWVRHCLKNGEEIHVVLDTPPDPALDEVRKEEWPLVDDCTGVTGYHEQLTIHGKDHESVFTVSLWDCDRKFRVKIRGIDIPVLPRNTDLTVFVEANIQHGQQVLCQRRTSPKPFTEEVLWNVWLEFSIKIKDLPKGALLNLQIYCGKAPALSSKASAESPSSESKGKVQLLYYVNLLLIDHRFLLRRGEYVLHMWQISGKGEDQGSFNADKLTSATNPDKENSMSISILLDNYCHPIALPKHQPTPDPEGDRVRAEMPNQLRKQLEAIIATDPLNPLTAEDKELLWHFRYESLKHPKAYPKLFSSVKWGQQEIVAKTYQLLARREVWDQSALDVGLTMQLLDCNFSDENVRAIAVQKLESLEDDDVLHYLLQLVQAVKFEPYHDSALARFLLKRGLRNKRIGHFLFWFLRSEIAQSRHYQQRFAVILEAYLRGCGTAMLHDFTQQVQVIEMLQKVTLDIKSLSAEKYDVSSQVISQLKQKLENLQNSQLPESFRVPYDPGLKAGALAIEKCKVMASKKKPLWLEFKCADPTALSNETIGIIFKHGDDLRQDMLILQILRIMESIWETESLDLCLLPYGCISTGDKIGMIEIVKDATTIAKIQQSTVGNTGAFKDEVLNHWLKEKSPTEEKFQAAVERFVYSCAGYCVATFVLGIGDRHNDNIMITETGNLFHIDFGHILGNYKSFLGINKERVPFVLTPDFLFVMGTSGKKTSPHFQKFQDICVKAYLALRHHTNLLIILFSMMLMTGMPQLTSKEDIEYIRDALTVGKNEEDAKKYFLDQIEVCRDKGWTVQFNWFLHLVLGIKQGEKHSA

[41] = target: Casein kinase I isoform delta (Homo sapiens) (UniProt P48730); details: Compound concentration 1000.0 nM
[42] = target: Activated CDC42 kinase 1 (Homo sapiens) (UniProt Q07912); details: Compound concentration 1000.0 nM
Chain of Activated CDC42 kinase 1 (Homo sapiens) (Q07912 whole entry, looked up): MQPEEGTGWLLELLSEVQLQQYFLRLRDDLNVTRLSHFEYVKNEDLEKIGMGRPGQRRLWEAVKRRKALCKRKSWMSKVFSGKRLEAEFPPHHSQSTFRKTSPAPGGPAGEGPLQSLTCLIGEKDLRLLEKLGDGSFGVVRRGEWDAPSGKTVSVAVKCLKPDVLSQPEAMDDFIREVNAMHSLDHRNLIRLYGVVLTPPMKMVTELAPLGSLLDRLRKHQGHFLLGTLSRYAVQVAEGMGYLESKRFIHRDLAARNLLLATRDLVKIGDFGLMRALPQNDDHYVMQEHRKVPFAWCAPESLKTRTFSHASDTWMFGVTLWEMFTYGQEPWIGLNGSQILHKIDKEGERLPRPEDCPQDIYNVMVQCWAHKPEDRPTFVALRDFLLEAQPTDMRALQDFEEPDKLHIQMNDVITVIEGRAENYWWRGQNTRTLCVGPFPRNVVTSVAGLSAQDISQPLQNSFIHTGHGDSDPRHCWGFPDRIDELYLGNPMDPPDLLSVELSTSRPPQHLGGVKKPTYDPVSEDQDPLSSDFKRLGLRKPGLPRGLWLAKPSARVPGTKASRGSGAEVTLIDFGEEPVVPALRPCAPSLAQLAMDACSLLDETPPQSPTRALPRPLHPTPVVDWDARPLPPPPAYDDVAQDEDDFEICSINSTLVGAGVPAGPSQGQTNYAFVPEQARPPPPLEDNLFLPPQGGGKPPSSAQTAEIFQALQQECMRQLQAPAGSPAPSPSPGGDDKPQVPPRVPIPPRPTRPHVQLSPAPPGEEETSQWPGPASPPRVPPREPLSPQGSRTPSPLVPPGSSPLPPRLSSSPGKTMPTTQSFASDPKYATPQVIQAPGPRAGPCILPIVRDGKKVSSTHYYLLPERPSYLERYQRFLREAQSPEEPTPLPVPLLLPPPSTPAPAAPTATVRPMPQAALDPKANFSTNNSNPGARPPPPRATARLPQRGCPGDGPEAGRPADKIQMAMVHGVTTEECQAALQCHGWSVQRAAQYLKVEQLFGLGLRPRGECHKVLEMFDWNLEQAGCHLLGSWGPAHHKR

[43] = target: Serine/threonine-protein kinase Nek9 (Homo sapiens) (UniProt Q8TD19); details: Compound concentration 1000.0 nM
[44] = target: Dual specificity testis-specific protein kinase 1 (Homo sapiens) (UniProt Q15569); details: Compound concentration 1000.0 nM
[45] = target: Serine/threonine-protein kinase RIO1 (Homo sapiens) (UniProt Q9BRS2); details: Compound concentration 1000.0 nM

Nc1cnc(N2CCc3cc(S(=O)(=O)Nc4c(F)cc(Cl)cc4F)cc(N4CCCC4=O)c32)nc1
residual activity [1]: 95%
residual activity [2]: 75%
residual activity [3]: 100%
residual activity [4]: 100%
residual activity [5]: 73%
residual activity [6]: 100%
residual activity [7]: 100%
residual activity [8]: 91%
residual activity [9]: 100%
residual activity [10]: 100%
residual activity [11]: 100%
residual activity [12]: 100%
residual activity [13]: 100%
residual activity [14]: 88%
residual activity [15]: 100%
residual activity [16]: 100%
residual activity [17]: 97%
residual activity [18]: 100%
residual activity [19]: 100%
residual activity [20]: 100%
residual activity [21]: 100%
residual activity [22]: 84%
residual activity [23]: 88%
residual activity [24]: 42%
residual activity [25]: 100%
residual activity [26]: 92%
inhibition [27]: -4.55%
residual activity [28]: 100%
residual activity [29]: 74%
residual activity [30]: 85%
residual activity [31]: 100%
residual activity [32]: 100%
residual activity [33]: 85%
residual activity [34]: 88%
residual activity [35]: 100%
residual activity [36]: 78%
residual activity [37]: 88%
residual activity [38]: 84%
residual activity [39]: 88%
residual activity [40]: 81%
residual activity [41]: 98%
residual activity [42]: 91%
residual activity [43]: 98%
residual activity [44]: 100%
residual activity [45]: 100%

Cn1nc(C(F)(F)F)cc1-c1cnc(N2CCc3cc(S(=O)(=O)Nc4c(F)cc(Cl)cc4F)cc(N4CCCC4=O)c32)nc1 [TP-020]
residual activity [1]: 100%
residual activity [2]: 99%
residual activity [3]: 74%
residual activity [4]: 78%
residual activity [5]: 88%
residual activity [6]: 96%
residual activity [7]: 100%
residual activity [8]: 100%
residual activity [9]: 79%
residual activity [10]: 100%
residual activity [11]: 77%
residual activity [12]: 90%
residual activity [13]: 88%
residual activity [14]: 100%
residual activity [15]: 100%
residual activity [16]: 100%
residual activity [17]: 98%
residual activity [18]: 83%
residual activity [19]: 100%
residual activity [20]: 86%
residual activity [21]: 100%
residual activity [22]: 78%
residual activity [23]: 100%
residual activity [24]: 88%
residual activity [25]: 100%
residual activity [26]: 100%
inhibition [27]: 14.8%
residual activity [28]: 96%
residual activity [29]: 88%
residual activity [30]: 95%
residual activity [31]: 100%
residual activity [32]: 100%
residual activity [33]: 77%
residual activity [34]: 97%
residual activity [35]: 87%
residual activity [36]: 99%
residual activity [37]: 95%
residual activity [38]: 100%
residual activity [39]: 100%
residual activity [40]: 88%
residual activity [41]: 94%
residual activity [42]: 100%
residual activity [43]: 100%
residual activity [44]: 86%
residual activity [45]: 96%
